Test results reported in patent publication EP2820422B1, “ABCG2 TRANSPORTER ASSAY” (priority 2012, dated 2013).
Blank lines part the entries; values can stand above or below the compound they belong to.

What was measured:
[1] = target: T1, human ABCG2 protein (Homo sapiens, UniProt Q9UNQ0); experiment: ABCG2-ATPase activity measurement (vanadate sensitive) in cholesterol loaded, isolated Sf9 membrane vesicles; format: biochemical; parameters: removing the full-length human ABCG2 cDNA (G482 variant) from pcDNA3.1/ABCG2 with SacI digestion; made in house; host or cells: Sf9 insect cells (baculovirus)
T1 sequence (Q9UNQ0 1-655): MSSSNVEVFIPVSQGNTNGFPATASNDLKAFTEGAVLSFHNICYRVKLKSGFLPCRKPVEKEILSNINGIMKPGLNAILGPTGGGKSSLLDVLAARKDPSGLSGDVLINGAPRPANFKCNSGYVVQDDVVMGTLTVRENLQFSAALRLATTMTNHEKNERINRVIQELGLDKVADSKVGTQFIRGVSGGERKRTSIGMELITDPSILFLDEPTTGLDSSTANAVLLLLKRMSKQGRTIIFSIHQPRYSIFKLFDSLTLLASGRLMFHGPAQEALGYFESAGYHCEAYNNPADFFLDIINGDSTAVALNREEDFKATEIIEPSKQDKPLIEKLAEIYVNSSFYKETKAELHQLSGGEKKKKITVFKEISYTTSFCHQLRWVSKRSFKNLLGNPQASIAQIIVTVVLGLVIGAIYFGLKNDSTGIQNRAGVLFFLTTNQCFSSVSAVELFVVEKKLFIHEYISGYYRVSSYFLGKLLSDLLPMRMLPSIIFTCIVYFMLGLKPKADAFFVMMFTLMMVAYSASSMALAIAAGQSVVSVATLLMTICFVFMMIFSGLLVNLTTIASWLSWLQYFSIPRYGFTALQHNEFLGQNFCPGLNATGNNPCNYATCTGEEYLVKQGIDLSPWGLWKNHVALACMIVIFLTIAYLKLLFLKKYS
Description: Thus, for direct measurements with ABCG2 in Sf9 membrane vesicles the membrane is loaded with cholesterol. After homogenization the sample is incubated with 2.5 mg/ml cholesterol-cyclodextrin complex (Cyclolab, Budapest) for 20 minutes at +4°C then followed by centrifugation steps.
ABCG2-Sf9 membrane vesicles (10 ug total protein) or isolated ABCG2 (0.2 ug) and separately added liposomes or reconstituted ABCG2-proteoliposome (0.2 ug) was added to assay mixture (final volume 150 ul) and preincubated for 5 or 20 minutes at 37°C when isolated ABCG2 and liposomes are used.
Reaction is started by adding Mg-ATP pH 7.0 to the reaction mixture at 3 mM and stopped after 20 or 30 minutes (for purified ABCG2) by 5% SDS.
Self-degradation of ATP is checked in each measurement by ABCG2 free samples.
Assay mixture was adapted for different setup with different type of ABCG2 samples. Assay buffer was 40 mM TRIS-MOPS pH 7.0 with 0.5 mM EGTA, 50 mM […] and 2 mM DTT.
For 'ABCG2 in Sf9 membrane vesicle' setup 5 mM Na-azide, 1 mM ouabain, were given to inhibit Sf9 intrinsic ATPases. ABC specific ATPase was measured as vanadate sensitive ATPase after determining the vanadate (1.3 mM) insensitive background.
A concentration set of K2HPO4 (10-50 ug/sample) is used as standard.

[2] = target: T1, human ABCG2 protein; details: cited from earlier work

Structure (SMILES): C[C@H](CCC(=O)NCCC[N+](C)(C)CCCS(=O)(=O)[O-])[C@H]1CC[C@H]2[C@@H]3[C@H](O)C[C@@H]4C[C@H](O)CC[C@]4(C)[C@H]3C[C@H](O)[C@]12C [CHAPS, 3-[(3-Cholamidopropyl)dimethylammonio]-1-propanesulfonate]
- effect of modifier agent on basal ABCG2-ATPase activity ([1]; cholesterol loaded Sf9 membrane vesicles, concentrations below the CMC, drug stimulation (5 uM quercetin) not altered, Figures 3 and 4): sigificantly decreased

Structure (SMILES): COc1ccc2c3c([nH]c2c1)[C@H](C=C(C)C)N1C(=O)[C@@H]2CCCN2C(=O)[C@@H]1C3 [FTC]
- Inhibition (+ modifying agent 0.1% CHAPS) [1]: 70%
- Inhibition (Control) [1]: 70%
- inhibition of basal vanadate-sensitive ATPase activity of ABCG2 [2]: fully inhibited

- effect on the ABCG2-ATPase activity ([1]; isolated Sf9 cell membrane preparations, first an activation, then an inhibition, Figure 6): biphasic effect
Structure (SMILES): Cc1cn(-c2cc(NC(=O)c3ccc(C)c(Nc4nccc(-c5cccnc5)n4)c3)cc(C(F)(F)F)c2)cn1 [Nilotinib]
